# According to US20190274981A1, “OLEANOLIC ACID ENHANCES MESENCHYMAL STROMAL CELL OSTEOGENIC POTENTIAL BY INHIBITION OF NOTCH SIGNALING” (Board of Supervisors of Louisiana State University and …, priority 2018, published 2019):
# “Also recorded” adds a separate entry of the source.
# Columns and labels:
# [1] = system: MSCs; test: Cell viability assay (MTT); format: cell-based, human; conditions: 12 hours
# Procedure: (§1) Cell culture and treatment: The human MSCs were purchased from Lonza. Oleanolic acid was obtained from Sigma-Aldrich (Aldrich-5504). A 100 mM solution of OA was prepared in dimethyl sulfoxide (DMSO), and all test concentrations were prepared by diluting the stock solution in cell culture medium. […] After expansion, cells were exposed to media containing OA and/or BMP2 for certain days. […] At the end, cells were harvested at different time points for analyses as described below.
# Cell viability assay: MSC viability was measured using MTT (3-(4, 5-dimethylthiazole-2-yl)-2, 5-diphenyl tetrazolium bromide) based in vitro toxicology assay kit (Sigma, St. Louis, Mo., USA). Briefly, cells were seeded in 96-well plates. After growing into 50-60% confluence, cells were exposed to various concentrations of OA for 12 hours, then the supernatant was discarded, and cells were treated with 0.5 mg/ml MTT staining solution for another four hours. After incubation, the supernatant was removed and 50 μl of solubilization buffer provided by the Sigma kit with 0.5% DMSO was added. DMSO was added to ensure total solubility of the formazan crystals. Plates were shaken for two minutes, and the absorbance recorded at 590 nm on an automated microtiter plate reader. The percent viability was expressed as a percentage of that in the vehicle control (with subtraction of background absorbance).
# [2] = system: MSCs; test: MSC osteogenic differentiation assay, real time RT-PCR of osteogenic markers; format: cell-based, human; conditions: OA 10 and 20 μM, seven days, vs DMSO treated control MSCs
# Procedure: as §1
# (§2) MSC osteogenic differentiation assay: Osteogenic differentiation assays of MSCs were performed using the Osteogenic differentiation bulletKit® (Lonza). MSCs were cultured at 200,000 cells/well in 6-well plates to confluence. Stem cell growth media was then replaced with osteogenic media supplied with or without OA and BMP2. After seven days of culture, alkaline phosphatase (ALP) staining, RNA, and protein isolation were performed as described in our published protocols.
# (§3) Real time RT-PCR: cDNA was synthesized from 1 μg total RNA using the SuperScript III reverse transcriptase kit (Invitrogen) in a final volume of 20 μl. Primers were designed with the IDT SCI primer design tool (Integrated DNA Technologies, San Diego, Calif.). RT-PCR experiments were performed with a Bio-Rad C1000 thermal cycler (Bio-Rad, Hercules, Calif.), and real-time PCR experiments were performed with an ABI prism 7500 (Applied Biosystems, Grand Island, N.Y.) in triplicate. Sequence for each primer pair were: Hes1, forward primer 5′-[…]-3′, reverse primer 5′-[…]-3′; ALP, forward primer 5′-[…]-3′, reverse primer 5′-[…] […]-3′; Runx2, forward primer 5′-[…]-3′, reverse primer 5′-[…]-3′; Osteocalcin (OC), forward primer 5′-[…]-3′, reverse primer 5′-[…]-3′; Osteopontin (OPN), forward primer 5′-[…]-3′, reverse primer 5′-[…]-3′; Type I collagen (Col1a1), forward primer 5′-[…]-3′, reverse primer 5′-[…]-3′; β-actin, forward primer 5′-[…]-3′; reverse primer 5′-[…] […]-3′. Samples were analyzed in triplicate, and the raw data consisted of PCR cycle numbers required to reach a fluorescence threshold level. The relative expression level of target genes was normalized to (β-actin gene.
# [3] = system: MSCs; test: MSC osteogenic differentiation assay, ALP staining; format: cell-based, human
# Procedure: Cell culture and treatment: The human MSCs were purchased from Lonza. Oleanolic acid was obtained from Sigma-Aldrich (Aldrich-5504). A 100 mM solution of OA was prepared in dimethyl sulfoxide (DMSO), and all test concentrations were prepared by diluting the stock solution in cell culture medium. […] At the end, cells were harvested at different time points for analyses as described below.
# as §2, with “Stem cell growth media was then replaced with osteogenic media supplied with or without OA and BMP2.” left out
# [4] = system: Notch signaling; test: Notch responsive RBPJ-Luc luciferase assay; format: cell-based, human; conditions: MSCs, 0, 10 μM and 20 μM OA, 48 hours
# Procedure: Luciferase assay: 80% confluence MSCs were transfected with Notch responsive RBPJ-Luc and SV40-Renilla-Luc (Promega) in the presence of Lipofectamine 2000 (Invitrogen) followed by OA treatment. At 24 hours after transfection and treatment, lysates were analyzed with a Dual Luciferase Assay Kit (Promega).
# The inventor has identified the RBPjk-dependent Notch pathway as an important inducer of MSC proliferation, and an inhibitor of MSC differentiation during mouse limb-bud and postnatal bone development. In this study, the inventor further tested whether Notch signaling is also involved in OA-mediated osteogenesis. To do so, MSCs were first transfected with the RBPjk-dependent NOTCH-responsive luciferase reporter, and then cultured in medium containing 0, 10 μM and 20 μM OA for 48 hours. […] Moreover, down-regulation of Notch target gene Hes1 expression was also observed in OA treated MSCs (FIG. 1E), which further confirmed the inhibitory effect of OA on Notch signaling.
# [5] = system: Notch target gene Hes1; test: Real time PCR of Notch target gene Hes1; format: cell-based, human; conditions: OA treated MSCs, day 7, vs DMSO treated control
# Procedure: as §3
# [6] = system: NICD; test: Western blot of NICD; format: cell-based, human; conditions: OA treated MSCs, day 3
# [7] = system: phospho-smad1/5/8; test: RT-PCR and western blot of phospho-smad1/5/8; format: cell-based, human; conditions: MSCs
# Procedure: Real time RT-PCR: cDNA was synthesized from 1 μg total RNA using the SuperScript III reverse transcriptase kit (Invitrogen) in a final volume of 20 μl. Primers were designed with the IDT SCI primer design tool (Integrated DNA Technologies, San Diego, Calif.). RT-PCR experiments were performed with a Bio-Rad C1000 thermal cycler (Bio-Rad, Hercules, Calif.), and real-time PCR experiments were performed with an ABI prism 7500 (Applied Biosystems, Grand Island, N.Y.) in triplicate. […] Samples were analyzed in triplicate, and the raw data consisted of PCR cycle numbers required to reach a fluorescence threshold level. The relative expression level of target genes was normalized to (β-actin gene.
# Western blot analysis: MSCs cultured with or without OA and BMP2 treatment were lysed in RIPA buffer (10 mM Tris-HCI, 1 mM EDTA, 1 sodium dodecyl sulfate [SDS], 1% NP-40, 1:100 proteinase inhibitor cocktail, 50 mM β-glycerophosphate, 50 mM sodium fluoride). The samples were separated on a 10% SDS polyacrylamide gel and transferred to polyvinylidene difluoride (PVDF) membranes with a semi-dry transfer apparatus (Bio-Rad). The membranes were blotted with 5% dehydrated milk for two hours, and then, incubated with primary antibodies overnight. […]
# [8] = system: MSCs; test: Lentivirus-mediated Notch activation (NICD1 overexpression) in OA treated MSCs; format: cell-based, human
# [9] = system: MSC/HA pellet; test: In vivo ectopic bone-formation assay; conditions: MSCs with 20 μM OA, subcutaneous in nude mice, six weeks
# Procedure: In vivo ectopic bone-formation assay: All animal studies were reviewed and approved by the Animal Ethics Committee of Louisiana State University Health Sciences Center. 1.0×10^6 total MSCs were re-suspended in 80 μl of MSC growth media containing 20 μM OA and gently mixed with 50 mg of hydroxyapatite (HA) powder (Himed). The composites were then centrifuged for two minutes at 200 rpm to form a MSC/HA pellet. For ectopic bone formation surgery, ten 8-week-old NOD.CB17^−Prkdescid/J mice (Charles River) (up to 2 implants for each animal) were anesthetized and the dorsal skin was cleaned with 70% ethanol. Two incisions of ˜1 cm in length were performed on the opposite flanks of the back, and then a pocket was formed by blunt dissection. Finally the MSC/HA pellets were implanted. Six weeks post-surgery, transplanted BMSC/HA pellets were harvested for gross observation and Masson's trichrome staining. […] All animal work was performed in accordance with institution approved guidelines.
# MSCs were first dissolved in PBS containing 20 μM OA, then mixed with HA ceramic powder, and centrifuged into MSC/HA pellets prior to subcutaneous transplantation into nude mice. After six weeks of growth and differentiation, the pellets were harvested for gross observation, Masson's trichrome and immunohistochemistry staining (FIG. 4A).
# [10] = system: normal cells; conditions: cited from earlier work
smiles,measurement,setting,value
"CC1(C)CC[C@]2(C(=O)O)CC[C@]3(C)C(=CC[C@@H]4[C@@]5(C)CC[C@H](O)C(C)(C)[C@@H]5CC[C@]43C)[C@@H]2C1 [OA, (3β)-3-hydroxyolean-12-en-28-oic acid]",cell death in cell viability assay,[1]; OA 10 μM,no cell death
same,cell death in cell viability assay,[1]; OA 20 μM,no cell death
same,cell death in cell viability assay,[1]; OA 30 μM,significant cell death
same,ALP expression (early osteogenic marker),[2],enhanced expression
same,Col1a1 expression (early osteogenic marker),[2],enhanced expression
same,OC expression (later osteogenic marker),[2],remained unchanged
same,OPN expression (later osteogenic marker),[2],remained unchanged
same,Runx2 expression (early osteogenic marker),[2],enhanced expression
same,ALP activity (ALP staining),"[3]; OA 20 μM and/or BMP2 200 ng/ml, seven days, osteogenic medium",significant increase; also recorded: relative weak ALP staining
same,ALP staining (MSC osteogenic differentiation),"[3]; OA 10 and 20 μM, seven days",dose dependent increase
same,osteogenic nodule formation,"[3]; OA treated MSCs at day 7, maximal staining at 20 μM",increase in osteogenic nodule formation
same,Notch-responsive luciferase activity,[4],inhibited Notch-responsive luciferase activity dose dependently
same,Notch target gene Hes1 expression,[5],down-regulation
same,expression of NICD (western blot),[6],significantly reduced
same,gene expression of p-smad1/5/8 (RT-PCR),"[7]; day 7, OA 20 μM, BMP2 200 ng/ml",did not show any effects
same,p-smad1/5/8 expression (western blot),"[7]; day 7, control vs OA treated",no significant difference
same,OA-induced ALP staining under overexpression of NICD1,"[8]; NICD1 lentivirus infected MSCs, OA, day 7",totally blocked
same,"expression of ALP, Runx2 and Col1a1 in Notch activated MSCs with OA","[8]; NICD1 lentivirus, RT-PCR, day 7, vs control or OA treated MSCs",significantly reduced
same,increase of type I collagen bone matrix (blue) in the pellet area vs untreated MSCs,[9],approximately 4 fold
same,"pellet area stained blue (type I collagen bone matrix, Masson's trichrome)",[9],30%
same,cytotoxicity to normal cells,[10],no significant cytotoxicity
